The source of these data is patent publication US20130065866A1, “DENTINAL DRUG DELIVERY COMPOSITION AND SCREENING METHOD” (UNIVERSITY OF MEDICINE AND DENTISTRY OF NEW JERSEY, priority 2009, published 2013).

Format in all cases: cell-based, murine
The test system of data set [1] is LPS-evoked NO production in RAW cells. The data set can be described thus: Direct effect on NO production in RAW cells. Conditions: for reduction of spontaneous NO production: absence of LPS stimulation; for inhibition of LPS-evoked NO production: direct treatment. The source says: (§1) After the one or more time intervals (e.g., one or more minutes, hours, or days), the diffusate is collected and tested for activity against an isolated dental pulp cell or isolated population of dental pulp cells. An isolated pulpal cell or population of dental pulp cells refers to cells that are removed from their native environment (i.e., the dental pulp). The isolated cells can be cultured primary cells or cultured cell line and include, but are not limited to fibroblasts, odontoblasts, histiocytes, macrophage, granulocytes, mast cells or plasma cells. Exemplary cell lines include, but are not limited to the murine macrophage cell line, RAW 264.7; immortalized mouse odontoblast cell line, MDPC-23; and the murine fibroblast cell line, 3T3.
(§2) As indicated, in some embodiments it is determined whether the diffusate contains a sufficient amount of test agent to inhibit or decrease the expression or activity of at least one inflammatory mediator of the dental pulp cell. In accordance with this embodiment, the isolated pulpal cell or population of dental pulp cells can be challenged with an inflammation-provoking stimulus (e.g., Lipopolysaccharide (LPS), N-formyl-methionyl-leucyl-phenylalanine, or phorbol myristate acetate) either before or after being contacted with the diffusate, so that the effect of the drug diffusing through the dentin barrier on inflammatory mediator production is assessed.
(§3) Prostaglandins such as PGE2 and nitric oxide (NO) are inflammatory mediators that are generated in injured tissue and influence vascular tissues, nociceptive nerve endings and immune cells. For example, exposure of immune and other cells to bacterial toxins such as LPS evokes production of PGE2 and NO. Other known mediators of inflammation include, but are not limited to, bradykinin, histamine, leukotrienes (Bd, Cd, Dd, Ed) IL-8, and neutrophil and macrophage lysosomal enzymes. The effect of test agents on the expression or activity of one or more of the above-referenced inflammatory mediators can be determined by conventional methods. For example, mRNA expression can be determined by dot blot, northern blot, or reverse transcriptase (RT)-PCR; protein expression can be determined by western blot or ELISA analysis; and NO production can be determined using a Griess reaction assay (e.g., EMSNOTOT kit) or ozone-based chemiluminescence assay.
The direct effect of drugs and lipids on inflammatory mediator production in RAW cells was determined. […] Measurable amounts of NO were produced in the absence of LPS stimulation (˜15 μM).

Data set [2] relates to LPS-evoked PGE2 production in RAW cells. Description: Direct effect on LPS-evoked PGE2 production in RAW cells. Conditions: direct treatment.
Description: as §1, §2
as §3, with “For example, exposure of immune and other cells to bacterial toxins such as LPS evokes production of PGE2 and NO. Other known mediators of inflammation include, but are not limited to, bradykinin, histamine, leukotrienes (Bd, Cd, Dd, Ed) IL-8, and neutrophil and macrophage lysosomal enzymes.” left out, “assay. […]” for “assay.”

The subject of data set [3] is RAW cells. Description: Toxicity to cells in the RAW cell study. The settings on record: levels used in this study. On the procedure: The direct effect of drugs and lipids on inflammatory mediator production in RAW cells was determined.
Data set [4] concerns PGE2 production in LPS-stimulated RAW cells. The data set can be described thus: Transdentinal diffusion; diffusate applied to LPS-stimulated RAW cells, PGE2. The settings on record: 24 hours of diffusion through dentin; diffusate on RAW cells stimulated with LPS. On the procedure:
(§4) This screening method of the invention includes the steps of contacting a coronal surface of an isolated dentin sample with a test agent, incubating the test agent and dentin sample so that diffusate is formed on the pulpal side of the dentin sample, contacting an isolated dental pulp cell with the diffusate, and determining whether the diffusate contains a sufficient amount of test agent to act on a cell of the dental pulp. In one embodiment, it is determined whether the diffusate contains a sufficient amount of test agent to inhibit or decrease the expression or activity of at least one inflammatory mediator of the dental pulp cell (e.g., nociceptive nerve endings, blood vesicle cells or inflammatory cells).
(§5) The dentins sample can be isolated by conventional methods and used in combination with a commercially available two-chamber diffusion cell, wherein the partition separating the two chambers holds the dentin sample (e.g., a dentin disk) in an orientation so that the dentin tubules provide the only connection between the two chambers. See, e.g., Hanks, et al. (1993) J. Dent. Res. 72:931-938; and Puapichartdumrong, et al. (2003) Internatl. Endodont. J. 36:674-81. […]

In data set [5] the test system is LPS-evoked NO production in RAW cells. The data set can be described thus: Transdentinal diffusion; diffusate applied to LPS-stimulated RAW cells, NO. The settings on record: 24 hours of diffusion through dentin; diffusate on RAW cells stimulated with LPS. On the procedure: as §4, §5

Molecules are shown by their SMILES.

For the compound `CC/C=C\C/C=C\C/C=C\C/C=C\C/C=C\C/C=C\CCC(=O)O` [DHA, docosahexaenoic], in data set [1], the “reduction of spontaneous NO production” value is “small (not statistically significant) reduction” and the “inhibition of LPS-evoked NO production” value was “inhibited NO production but to a lesser extent than aspirin”.
In the case of `CC(=O)Oc1ccccc1C(=O)O` [aspirin, acetylsalicyclic acid], the “inhibition of LPS-evoked PGE2 production” value in data set [2] (compared to oleic acid) is recorded as “effective inhibitors of LPS-evoked PGE2 production”. Also, in data set [1] (0.5 mM and lower (0.05, 0.005, 0.0005 mM)), the “reduction of LPS-evoked NO production” value is on record as “did not significantly reduce LPS-evoked NO production”. Further, the “reduction of LPS-evoked NO production” value in data set [1] (5 mM) is “significantly reduced NO production”. Besides, in data set [1], the “reduction of spontaneous NO production” value is “small (not statistically significant) reduction” and the “inhibition of LPS-evoked NO production” value was “effectively inhibited LPS-evoked NO production”. For the same compound, in data set [3], the toxicity to cells result is given as “non-toxic to cells”. In data set [4], the “PGE2 production after diffusate application” value is on record as “significantly reduced”. For the same compound, the “LPS-evoked NO production after diffusate application” value in data set [5] is listed as “depressed”.
Consider `CC(C)Cc1ccc(C(C)C(=O)O)cc1` (centres unmarked) [ibuprofen], for which the figures for the “inhibition of LPS-evoked PGE2 production” value in data set [2] (50 μM) and in data set [2] (compared to oleic acid) were “inhibited LPS-evoked PGE2 production” and “effective inhibitors of LPS-evoked PGE2 production”, respectively. In data set [1] (50 μM), the “effect on LPS-evoked NO production” value is on record as “no effect on LPS-evoked NO production”. Also, the “inhibition of LPS-evoked NO production” value in data set [1] is “did suppress NO production”. In addition, the “PGE2 production after diffusate application” value in data set [4] is on record as “significantly reduced”. In addition, the “LPS-evoked NO production after diffusate application” value in data set [5] is on record as “did not attenuate LPS-stimulated NO production”.
As for `CCCCCCCC/C=C\CCCCCCCC(=O)O` [oleic acid], the “inhibition of LPS-evoked NO production” value in data set [1] is given as “not shared”.
